According to patent US10800792B2, “Inhibitors of Bruton's tyrosine kinase and method of their use” (JANSSEN PHARMACEUTICA NV, priority 2015, dated 2020):

Target: unphosphorylated-BTK kinase domain (UP-BTK), GST-tagged human BTK (389-659aa) (Homo sapiens (Human), UniProt Q06187)
Assay: BTK kinase Lanthascreen binding assay
Settings: unphosphorylated-BTK kinase domain, 50 nM Tracer 236, 60 minutes, pIC50 = negative log of the IC50 in molar
Method: BTK Kinase Lanthascreen Binding Assay:
A BTK kinase lanthascreen binding assay monitors compound binding to unphosphorylated-BTK kinase domain (UP-BTK), by competing with a fluorescent labeled tracer. […] Data were analyzed using Xlfit™ version 5.3 from ID Business Solutions (Guildford), Microsoft Excel add-in. pIC50 refers to the negative log of the IC50 in molar

unphosphorylated-BTK kinase domain (UP-BTK), GST-tagged human BTK (389-659aa), sequence (Q06187 389-659): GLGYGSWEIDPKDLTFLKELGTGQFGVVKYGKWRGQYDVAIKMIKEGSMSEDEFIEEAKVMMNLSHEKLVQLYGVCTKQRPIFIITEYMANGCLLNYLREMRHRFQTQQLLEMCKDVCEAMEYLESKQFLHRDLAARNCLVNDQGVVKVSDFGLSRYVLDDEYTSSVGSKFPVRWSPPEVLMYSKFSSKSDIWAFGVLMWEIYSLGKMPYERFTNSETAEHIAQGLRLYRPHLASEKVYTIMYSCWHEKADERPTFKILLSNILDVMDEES

Structure (SMILES)	BTK_I_binding pIC50	IC50 (read-out: BTK_I_binding pIC50 (converted)) [µM]
Cc1cc(Oc2ccccc2)ccc1N1C(=O)Nc2c(C(=O)N[C@H]3CCOC3)sc3nccc1c23 (single isomer, unassigned) [Example 323, (S)-5-(*R)-(2-Methyl-4-phenoxyphenyl)-4-oxo-N-(tetrahydrofuran-3-yl)-4,5-dihydro-3H-1-thia-3,5,8-triazaacenaphthylene-2-carboxamide]	5.7	–
Cc1cc(Oc2ccccc2)ccc1N1C(=O)Nc2c(C(=O)N[C@@H]3CCCN(C(=O)/C(C#N)=C/C4CC4)C3)sc3nccc1c23 (single isomer, unassigned) [Example 365, (R,E)-N-(1-(2-Cyano-3-cyclopropylacryloyl)piperidin-3-yl)-5-(*R)-(2-methyl-4-phenoxyphenyl)-4-oxo-4,5-dihydro-3H-1-thia-3,5,8-triazaacenaphthylene-2-carboxamide]	–	0.0501
Cc1cc(Oc2ccccc2)ccc1N1C(=O)Nc2c(C(=O)N[C@H]3CCNC(C)C3)sc3nccc1c23 (single isomer, unassigned) [Example 432, 5-(*S)-(2-Methyl-4-phenoxyphenyl)-N-((4*S)-2-methylpiperidin-4-yl)-4-oxo-4,5-dihydro-3H-1-thia-3,5,8-triazaacenaphthylene-2-carboxamide]	7.0	–
Cc1cc(Oc2ccccc2)ccc1N1C(=O)Nc2c(C(=O)N[C@H]3CCNC(C)C3)sc3nccc1c23 (single isomer, unassigned) [Example 433, 5-(*R)-(2-Methyl-4-phenoxyphenyl)-N-((4*S)-2-methylpiperidin-4-yl)-4-oxo-4,5-dihydro-3H-1-thia-3,5,8-triazaacenaphthylene-2-carboxamide]	5.4	–

Further lines, results first:

BTK_I_binding pIC50	IC50 (read-out: BTK_I_binding pIC50 (converted)) [µM]	Structure (SMILES)
5.7	–	CCC(=O)N1CC[C@@H](NC(=O)c2sc3nccc4c3c2NC(=O)N4c2ccc(Oc3ccccc3)cc2C)C1 (single isomer, unassigned) [Example 325, (R)-5-(*R)-(2-Methyl-4-phenoxyphenyl)-4-oxo-N-(1-propionylpyrrolidin-3-yl)-4,5-dihydro-3H-1-thia-3,5,8-triazaacenaphthylene-2-carboxamide]
<5	–	CCC(=O)N1CCC[C@@H](NC(=O)c2sc3nccc4c3c2NC(=O)N4c2ccc(Oc3ccccc3)cc2C)C1 (single isomer, unassigned) [Example 345, (R)-5-(*R)-(2-Methyl-4-phenoxyphenyl)-4-oxo-N-(1-propionylpiperidin-3-yl)-4,5-dihydro-3H-1-thia-3,5,8-triazaacenaphthylene-2-carboxamide]
7.8	–	Cc1cc(Oc2ccccc2)ccc1N1C(=O)Nc2c(C(=O)N[C@@H]3CCCN(C(=O)/C(C#N)=C/C4(C)COC4)C3)sc3nccc1c23 (single isomer, unassigned) [Example 387, (R,E)-N-(1-(2-Cyano-3-(3-methyloxetan-3-yl)acryloyl)piperidin-3-yl)-5-(*R)-(2-methyl-4-phenoxyphenyl)-4-oxo-4,5-dihydro-3H-1-thia-3,5,8-triazaacenaphthylene-2-carboxamide]
6.6	–	Cc1cc(Oc2ccccc2)ccc1N1C(=O)Nc2c(C(=O)N[C@@H]3CCCN(C(=O)/C(C#N)=C/C(C)(C)C)C3)sc3nccc1c23 (single isomer, unassigned) [Example 398, (R,E)-N-(1-(2-Cyano-4,4-dimethylpent-2-enoyl)piperidin-3-yl)-5-(*R)-(2-methyl-4-phenoxyphenyl)-4-oxo-4,5-dihydro-3H-1-thia-3,5,8-triazaacenaphthylene-2-carboxamide]
7.3	–	Cc1cc(Oc2ccccc2)ccc1N1C(=O)Nc2c(C(=O)N[C@@H]3CCNC(C)C3)sc3nccc1c23 (single isomer, unassigned) [Example 434, 5-(*S)-(2-Methyl-4-phenoxyphenyl)-N-((4*R)-2-methylpiperidin-4-yl)-4-oxo-4,5-dihydro-3H-1-thia-3,5,8-triazaacenaphthylene-2-carboxamide]
